Experimental data reported in PubChem BioAssay AID248 (DTP/NCI, 2004).
“And” between values parts separate entries of the source, which are not always exact repeats. Equal entries are not always repeated. Toxic doses and inconclusive results are not listed. Rule as the data show it: active = T/C of 150% or more; inactive = T/C below 125%.

Tested on: L1210 leukemia ip in BDF1 mice, survival T/C
Test: NCI In Vivo Anticancer Drug Screen. Data for tumor model L1210 Leukemia (intraperitoneal) in B6D2F1 (BDF1) mice
Conditions: higher = longer survival
Method in brief: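 Value reflects the ratio of survival in compound-treated mice to survival in vehicle-treated controls, with both groups carrying the same transplanted tumor.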

[1] = endpoint: mean survival time, dose: 75.0 mg/kg/injection, schedule: Q01DX001 (ip), vehicle: saline
[2] = endpoint: mean survival time, dose: 150.0 mg/kg/injection, schedule: Q01DX001 (ip), vehicle: saline
[3] = endpoint: mean survival time, dose: 300.0 mg/kg/injection, schedule: Q01DX001 (ip), vehicle: saline
[4] = endpoint: mean survival time, dose: 100.0 mg/kg/injection, schedule: Q04DX003 (ip), vehicle: saline with Tween-80
[5] = endpoint: mean survival time, dose: 100.0 mg/kg/injection, schedule: Q04DX002 (ip), vehicle: saline with Tween-80
[6] = endpoint: mean survival time, dose: 200.0 mg/kg/injection, schedule: Q04DX002 (ip), vehicle: saline with Tween-80
[7] = endpoint: mean survival time, dose: 5.0 mg/kg/injection, schedule: Q01DX009 (ip), vehicle: saline with Tween-80

Measured: T/C

O=C(O)c1ccc(OCCc2ccccc2)cc1
inactive: [1] 98 % of control | endpoint: mean survival time, dose: 75.0 mg/kg/injection, schedule: Q04DX003 (ip), vehicle: saline 103 % of control | [2] 98 % of control | endpoint: mean survival time, dose: 150.0 mg/kg/injection, schedule: Q04DX003 (ip), vehicle: saline 98 % of control | [3] 95 % of control | endpoint: mean survival time, dose: 300.0 mg/kg/injection, schedule: Q04DX003 (ip), vehicle: saline 93 % of control

O=C(NCCNCc1ccccc1)c1ccccc1
inactive: endpoint: mean survival time, dose: 25.0 mg/kg/injection, schedule: Q01DX009 (ip), vehicle: water 97 % of control | endpoint: mean survival time, dose: 25.0 mg/kg/injection, schedule: Q04DX003 (ip), vehicle: water 96 % of control | endpoint: mean survival time, dose: 50.0 mg/kg/injection, schedule: Q01DX009 (ip), vehicle: water 98 % of control | endpoint: mean survival time, dose: 50.0 mg/kg/injection, schedule: Q04DX003 (ip), vehicle: water 107 % of control | [4] 108 % of control | endpoint: mean survival time, dose: 100.0 mg/kg/injection, schedule: Q04DX003 (ip), vehicle: water 92 % of control

CCOC(=O)c1cnc(SC)nc1Nc1ccc([N+](=O)[O-])cc1
inactive: endpoint: mean survival time, dose: 25.0 mg/kg/injection, schedule: Q01DX001 (ip), vehicle: Klucel (hydroxypropylcellulose) (HPC) 91 % of control | endpoint: mean survival time, dose: 50.0 mg/kg/injection, schedule: Q01DX001 (ip), vehicle: Klucel (hydroxypropylcellulose) (HPC) 89 % of control | endpoint: mean survival time, dose: 100.0 mg/kg/injection, schedule: Q01DX001 (ip), vehicle: Klucel (hydroxypropylcellulose) (HPC) 90 % of control

Br/C=C/c1ccccc1
inactive: [5] 94 % of control | [6] 97 % of control | endpoint: mean survival time, dose: 400.0 mg/kg/injection, schedule: Q04DX002 (ip), vehicle: saline with Tween-80 100 % of control

CCN(CC)CCNC(=O)c1ccc(N=Cc2cc(Cl)cc(Cl)c2O)cc1
inactive: endpoint: mean survival time, dose: 100.0 mg/kg/injection, schedule: Q01DX009 (ip), vehicle: Klucel (hydroxypropylcellulose) (HPC) 100 % of control | endpoint: mean survival time, dose: 200.0 mg/kg/injection, schedule: Q01DX009 (ip), vehicle: Klucel (hydroxypropylcellulose) (HPC) 96 % of control

CCOc1ccc(N=NS(=O)(=O)O)cc1
inactive: endpoint: mean survival time, dose: 1.25 mg/kg/injection, schedule: Q01DX009 (ip), vehicle: saline with Tween-80 94 % of control | endpoint: mean survival time, dose: 2.5 mg/kg/injection, schedule: Q01DX009 (ip), vehicle: saline with Tween-80 91 % of control | [7] 94 % of control

Oc1ccccc1-c1nc2ccccc2o1
inactive: endpoint: mean survival time, dose: 50.0 mg/kg/injection, schedule: Q04DX002 (ip), vehicle: saline with Tween-80 98 % of control | [5] 95 % of control | [6] 92 % of control

CCOC(=O)c1[nH]c(-c2ccccc2)cc1-c1ccccc1
inactive: endpoint: mean survival time, dose: 100.0 mg/kg/injection, schedule: Q04DX003 (ip), vehicle: Klucel (hydroxypropylcellulose) (HPC) 118 % of control | endpoint: mean survival time, dose: 200.0 mg/kg/injection, schedule: Q04DX003 (ip), vehicle: Klucel (hydroxypropylcellulose) (HPC) 108 % of control | endpoint: mean survival time, dose: 400.0 mg/kg/injection, schedule: Q04DX003 (ip), vehicle: Klucel (hydroxypropylcellulose) (HPC) 108 % of control

CC1=C(C)CP(C)(=O)C1
inactive: [4] 93 % of control | endpoint: mean survival time, dose: 200.0 mg/kg/injection, schedule: Q04DX003 (ip), vehicle: saline with Tween-80 91 % of control | endpoint: mean survival time, dose: 400.0 mg/kg/injection, schedule: Q04DX003 (ip), vehicle: saline with Tween-80 86 % of control

COc1cc(NCc2ccccc2)ccc1NC(C)=O
inactive: endpoint: mean survival time, dose: 15.0 mg/kg/injection, schedule: Q01DX001 (ip), vehicle: carboxymethylcellulose (CMC) 98 % of control | endpoint: mean survival time, dose: 30.0 mg/kg/injection, schedule: Q01DX001 (ip), vehicle: carboxymethylcellulose (CMC) 110 % of control | endpoint: mean survival time, dose: 75.0 mg/kg/injection, schedule: Q01DX001 (ip), vehicle: carboxymethylcellulose (CMC) 98 % of control

CN(C)c1ccc(C(=C2C=CC(=[N+](C)C)C=C2)c2ccc(N(C)C)cc2)cc1
inactive: endpoint: mean survival time, dose: 100.0 mg/kg/injection, schedule: Q01DX001 (ip), vehicle: saline 97 % of control | endpoint: mean survival time, dose: 200.0 mg/kg/injection, schedule: Q01DX001 (ip), vehicle: saline 105 % of control

CC(O)(C#CC(C)(O)c1ccccc1)c1ccccc1 (stereo not given)
inactive: endpoint: mean survival time, dose: 100.0 mg/kg/injection, schedule: Q01DX009 (ip), vehicle: saline with Tween-80 97 % of control | endpoint: mean survival time, dose: 200.0 mg/kg/injection, schedule: Q01DX009 (ip), vehicle: saline with Tween-80 98 % of control | endpoint: mean survival time, dose: 400.0 mg/kg/injection, schedule: Q01DX009 (ip), vehicle: saline with Tween-80 113 % of control

CC1(CO)COC2(CCCCC2)N1 (stereo not given)
inactive: [1] 102 % of control | [2] 92 % of control | [3] 96 % of control

c1ccc(C[P+](c2ccccc2)(c2ccccc2)c2ccccc2)cc1
inactive: endpoint: mean survival time, dose: 3.13 mg/kg/injection, schedule: Q01DX009 (ip), vehicle: Klucel (hydroxypropylcellulose) (HPC) 106 % of control | endpoint: mean survival time, dose: 5.0 mg/kg/injection, schedule: Q01DX001 (ip), vehicle: saline with Tween-80 98 % of control | endpoint: mean survival time, dose: 5.0 mg/kg/injection, schedule: Q01DX001 (ip), vehicle: saline 105 % of control | [7] 95 % of control | endpoint: mean survival time, dose: 6.25 mg/kg/injection, schedule: Q01DX009 (ip), vehicle: Klucel (hydroxypropylcellulose) (HPC) 102 % of control and 95 % of control | endpoint: mean survival time, dose: 10.0 mg/kg/injection, schedule: Q01DX001 (ip), vehicle: saline with Tween-80 92 % of control | endpoint: mean survival time, dose: 10.0 mg/kg/injection, schedule: Q01DX001 (ip), vehicle: saline 100 % of control | endpoint: mean survival time, dose: 10.0 mg/kg/injection, schedule: Q01DX009 (ip), vehicle: saline with Tween-80 87 % of control | endpoint: mean survival time, dose: 12.5 mg/kg/injection, schedule: Q01DX009 (ip), vehicle: Klucel (hydroxypropylcellulose) (HPC) 107 % of control and 96 % of control and 110 % of control | endpoint: mean survival time, dose: 12.5 mg/kg/injection, schedule: Q04DX003 (ip), vehicle: Klucel (hydroxypropylcellulose) (HPC) 102 % of control | endpoint: mean survival time, dose: 20.0 mg/kg/injection, schedule: Q01DX001 (ip), vehicle: saline with Tween-80 90 % of control | endpoint: mean survival time, dose: 20.0 mg/kg/injection, schedule: Q01DX001 (ip), vehicle: saline 96 % of control | endpoint: mean survival time, dose: 25.0 mg/kg/injection, schedule: Q01DX009 (ip), vehicle: Klucel (hydroxypropylcellulose) (HPC) 89 % of control | endpoint: mean survival time, dose: 25.0 mg/kg/injection, schedule: Q04DX003 (ip), vehicle: Klucel (hydroxypropylcellulose) (HPC) 102 % of control | endpoint: mean survival time, dose: 40.0 mg/kg/injection, schedule: Q01DX001 (ip), vehicle: saline 105 % of control

OCCN1CCN(CCCN2c3ccccc3Sc3cccnc32)CC1
inactive: endpoint: mean survival time, dose: 4.68 mg/kg/injection, schedule: Q01DX009 (ip), vehicle: saline 94 % of control | endpoint: mean survival time, dose: 9.37 mg/kg/injection, schedule: Q01DX009 (ip), vehicle: saline 104 % of control | endpoint: mean survival time, dose: 18.75 mg/kg/injection, schedule: Q01DX009 (ip), vehicle: saline 113 % of control | endpoint: mean survival time, dose: 20.0 mg/kg/injection, schedule: Q01DX009 (ip), vehicle: saline 111 % of control | endpoint: mean survival time, dose: 37.5 mg/kg/injection, schedule: Q01DX009 (ip), vehicle: saline 115 % of control | endpoint: mean survival time, dose: 40.0 mg/kg/injection, schedule: Q01DX009 (ip), vehicle: saline 112 % of control | endpoint: mean survival time, dose: 75.0 mg/kg/injection, schedule: Q01DX009 (ip), vehicle: saline 107 % of control | endpoint: median survival time, dose: 20.0 mg/kg/injection, schedule: Q01DX009 (ip), vehicle: saline 113 % of control | endpoint: median survival time, dose: 40.0 mg/kg/injection, schedule: Q01DX009 (ip), vehicle: saline 112 % of control

Nc1cc(Sc2ccc(Cl)cc2)nc(N)n1
inactive: endpoint: mean survival time, dose: 100.0 mg/kg/injection, schedule: Q01DX001 (ip), vehicle: saline with Tween-80 100 % of control | endpoint: mean survival time, dose: 200.0 mg/kg/injection, schedule: Q01DX001 (ip), vehicle: saline with Tween-80 100 % of control | endpoint: mean survival time, dose: 400.0 mg/kg/injection, schedule: Q01DX001 (ip), vehicle: saline with Tween-80 100 % of control
